Several values for one entry are separate records, joined by “and”; a condition that tells them apart may be missing. Equal values may be shown once. Values belong to the sequence of their own block, whether it stands above or below them.
Legend:
MyD88^TIR = target: T1, MyD88^TIR (Homo sapiens, UniProt Q99836); test: T‐Surf phage library (P8 and P3) selection against MyD88^TIR, four rounds, NGS read counts; type: binding; conditions: for Population: 4th round of selection against MyD88 TIR, share of NGS reads; for P3_MyD88 Rank (after) / P3_MyD88 Rank (before): P3 library; for P8_MyD88 Rank (after) / P8_MyD88 Rank (before): P8 library
T1 construct: MyD88 (residues 148–296); 6xHis; made in house; host or cells: E. coli BL21 (DE3)
T1 sequence (Q99836 148-296): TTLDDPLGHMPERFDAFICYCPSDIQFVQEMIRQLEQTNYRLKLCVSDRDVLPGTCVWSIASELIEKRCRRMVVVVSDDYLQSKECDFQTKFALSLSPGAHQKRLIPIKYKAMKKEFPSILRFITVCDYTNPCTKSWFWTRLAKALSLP
How it was run: (§1)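 P8 and P3 T‐Surf libraries panned against plate-coated TIR domains (5 µg mL^−1), 1 h binding at RT, acid elution and TG1/helper-phage amplification per round. After four rounds, pools were PCR-barcoded and sequenced (NovaSeq, 100 bp paired-end, Phred ≥30); peptides ranked by read counts.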

MAL^TIR = target: T2, MAL^TIR (Homo sapiens, UniProt P58753); test: T‐Surf phage library (P8 and P3) selection against MAL^TIR, four rounds, NGS read counts; type: binding; conditions: for Population: 4th round of selection against MAL TIR, share of NGS reads; for Rank (after): P3_MAL: rank by count after grouping; for Rank (before): P3_MAL: rank by count before grouping; for P8_MAL Rank (after) / P8_MAL Rank (before): P8 library; for P3_MAL Rank (after) / P3_MAL Rank (before): P3 library
T2 construct: MAL (residues 79–221); 6xHis; made in house; host or cells: E. coli BL21 (DE3)
T2 sequence (P58753 79-221): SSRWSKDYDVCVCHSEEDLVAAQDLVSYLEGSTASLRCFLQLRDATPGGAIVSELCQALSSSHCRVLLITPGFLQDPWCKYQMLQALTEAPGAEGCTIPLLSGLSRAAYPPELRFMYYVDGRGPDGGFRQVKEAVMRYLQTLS
How it was run: as §1

[1] = P3_MyD88 pool: P3 T-Surf phage library
[2] = P3_MAL pool: P3 T-Surf phage library
[3] = P3_MyD88: rank by count after grouping
[4] = P3_MyD88: rank by count before grouping
[5] = P8_MyD88 pool: P8 T-Surf phage library
[6] = selection against MAL TIR, rank by count after grouping
[7] = selection against MAL TIR, rank by count before grouping
[8] = selection against MyD88, rank after grouping
[9] = selection against MyD88, rank before grouping
[10] = selection against MAL, rank after grouping
[11] = selection against MAL, rank before grouping
[12] = selection against MyD88 TIR, rank by count after grouping
[13] = selection against MyD88 TIR, rank by count before grouping
[14] = 4R selection against MAL, rank after grouping
[15] = 4R selection against MAL, rank before grouping
[16] = P8_MAL pool: P8 T-Surf phage library

Population (MyD88^TIR; [1]): 0.00437%
Population (MAL^TIR; [2]): 0.0124%
Rank (after) (MAL^TIR): 105
Rank (before) (MAL^TIR): 109
Sequence: KMQKWKDALYEAANLSGW

P3_MyD88 Rank (after) (MyD88^TIR; [8]): 522
P3_MyD88 Rank (before) (MyD88^TIR; [9]): 3634
P3_MAL Rank (after) (MAL^TIR; [10]): 565
P3_MAL Rank (before) (MAL^TIR; [11]): 3573
Sequence: KEVEGWRDALTKVANLSGW

Population (MyD88^TIR; [1]): 0.00466%
Population (MAL^TIR; [2]): 0.00413%
Sequence: SSFHEGLWRLLELSKK

P3_MyD88 Rank (after) (MyD88^TIR; [12]): 207
P3_MyD88 Rank (before) (MyD88^TIR; [13]): 1061
Rank (after) (MAL^TIR): 474
Rank (before) (MAL^TIR): 2222
Sequence: LKWGDPYFWSKLRFA

P3_MyD88 Rank (after) (MyD88^TIR; [12]): 250
P3_MyD88 Rank (before) (MyD88^TIR; [13]): 1304
P3_MAL Rank (after) (MAL^TIR; [14]): 652
P3_MAL Rank (before) (MAL^TIR; [15]): 3567
Sequence: KEVEGWRDALTKWRA

Population (MyD88^TIR; [1]): 0.00378%
Population (MAL^TIR; [2]): 0.0109%
Sequence: YAFTGHLHRYLVQHGV

P8_MyD88 Rank (after) (MyD88^TIR; [8]): 483
P8_MyD88 Rank (before) (MyD88^TIR; [9]): 3397
Population (MAL^TIR; [16]): 0.0034%
Sequence: RNFVAYLFQALANKGI

Rank (after) (MyD88^TIR; [3]): 141
Rank (before) (MyD88^TIR; [4]): 635
P3_MAL Rank (after) (MAL^TIR; [10]): 511
P3_MAL Rank (before) (MAL^TIR; [11]): 1972
Sequence: DSQSSRFKDDADLVG

P3_MyD88 Rank (after) (MyD88^TIR; [8]): 537
P3_MyD88 Rank (before) (MyD88^TIR; [9]): 1881
P3_MAL Rank (after) (MAL^TIR; [14]): 588
P3_MAL Rank (before) (MAL^TIR; [15]): 1798
Sequence: AFLYTFLINLTHPTNF
Population (MAL^TIR; [16]): 0.00463% and 0.00432% and 0.00402% and 0.00371% and 0.0034% and 0.00309% and 0.00278%

P8_MyD88 Rank (after) (MyD88^TIR; 4R selection against MyD88, rank after grouping): 615
P8_MyD88 Rank (before) (MyD88^TIR; 4R selection against MyD88, rank before grouping): 1356
Sequence: WFYERLVSLILRDTKV
Population (MAL^TIR; [16]): 0.00432% and 0.00402% and 0.00371% and 0.0034% and 0.00309% and 0.00278%

P3_MyD88 Rank (after) (MyD88^TIR; [8]): 507
P3_MyD88 Rank (before) (MyD88^TIR; [9]): 3498
P3_MAL Rank (after) (MAL^TIR; [10]): 550
P3_MAL Rank (before) (MAL^TIR; [11]): 3366
Sequence: NQWRNALTAAANLRL

Population (MyD88^TIR; [1]): 0.00553%
Population (MAL^TIR; [2]): 0.0162%
Rank (after) (MAL^TIR): 102
Rank (before) (MAL^TIR): 105
Sequence: NQWRNALTAAANLS

P3_MAL Rank (after) (MAL^TIR; [6]): 245
P3_MAL Rank (before) (MAL^TIR; [7]): 1314
Sequence: WQFHLRLRMHELLQKM

Population (MAL^TIR; [16]): 0.00371%
Sequence: AFFLGAAEKRAGQSDDX

P3_MAL Rank (after) (MAL^TIR; [14]): 592
P3_MAL Rank (before) (MAL^TIR; [15]): 1481
Sequence: YAFTSSLHRYLVQRGV

The next lines start with the sequence.

Sequence: LQNQWKLALTKVANLSGW
Rank (after) (MyD88^TIR; [3]): 98
Rank (before) (MyD88^TIR; [4]): 680
Rank (after) (MAL^TIR): 116
Rank (before) (MAL^TIR): 213

Sequence: WKNALANIAEILGFEL
Rank (after) (MyD88^TIR; P8_MyD88: rank by count after grouping): 162
Rank (before) (MyD88^TIR; P8_MyD88: rank by count before grouping): 180
Population (MyD88^TIR; [5]): 0.00732%
P8_MAL Rank (after) (MAL^TIR; [6]): 287
P8_MAL Rank (before) (MAL^TIR; [7]): 1431

Sequence: LKVESWRQSREKAGKL
P3_MyD88 Rank (after) (MyD88^TIR; [8]): 512
P3_MyD88 Rank (before) (MyD88^TIR; [9]): 2480
P3_MAL Rank (after) (MAL^TIR; [10]): 557
P3_MAL Rank (before) (MAL^TIR; [11]): 2266

Sequence: ELDFSHFWLFDGQAGGEA
Population (MyD88^TIR; [5]): 0.00771%
P8_MAL Rank (after) (MAL^TIR; [6]): 200
P8_MAL Rank (before) (MAL^TIR; [7]): 2049

Sequence: EWIREGLWRLLELSKK
Rank (after) (MyD88^TIR; [3]): 96
Rank (before) (MyD88^TIR; [4]): 361
Rank (after) (MAL^TIR): 135
Rank (before) (MAL^TIR): 411

Sequence: LQNQWKLALTKVASL
Rank (after) (MyD88^TIR; [3]): 100
Rank (before) (MyD88^TIR; [4]): 374
Rank (after) (MAL^TIR): 132
Rank (before) (MAL^TIR): 327

Sequence: SSFREGLWRLLVLSKK
Population (MyD88^TIR; [1]): 0.00437%
Population (MAL^TIR; [2]): 0.00338%

Sequence: SFFGINCVIICQRRS
P3_MyD88 Rank (after) (MyD88^TIR; [8]): 545
P3_MyD88 Rank (before) (MyD88^TIR; [9]): 2934
Rank (after) (MAL^TIR): 126
Rank (before) (MAL^TIR): 360

Sequence: NQWRNALYEAANLS
Rank (after) (MyD88^TIR; [3]): 184
Rank (before) (MyD88^TIR; [4]): 1269
P3_MAL Rank (after) (MAL^TIR; [6]): 198
P3_MAL Rank (before) (MAL^TIR; [7]): 1055

Sequence: WFWDKLIYALSRNPH
Rank (after) (MyD88^TIR; [3]): 155
Rank (before) (MyD88^TIR; [4]): 549
P3_MAL Rank (after) (MAL^TIR; [6]): 278
P3_MAL Rank (before) (MAL^TIR; [7]): 712

Sequence: RLLKWKEALHQFHSW
Rank (after) (MyD88^TIR; [3]): 130
Rank (before) (MyD88^TIR; [4]): 708
Rank (after) (MAL^TIR): 136
Rank (before) (MAL^TIR): 436

Sequence: YAFTGHLHRYLVQHCE
Rank (after) (MyD88^TIR; [3]): 169
Rank (before) (MyD88^TIR; [4]): 841
Rank (after) (MAL^TIR): 115
Rank (before) (MAL^TIR): 207

Sequence: SIFREGLWRLLELSKK
Population (MyD88^TIR; [1]): 0.00291%
Population (MAL^TIR; [2]): 0.0259%

Sequence: LKWAIRIFGANCVMR
Rank (after) (MyD88^TIR; [3]): 154
Rank (before) (MyD88^TIR; [4]): 1073
P3_MAL Rank (after) (MAL^TIR; [6]): 274
P3_MAL Rank (before) (MAL^TIR; [7]): 844

Sequence: SSFREGLWHLLELSKK
Population (MyD88^TIR; [1]): 0.00553%
Population (MAL^TIR; [2]): 0.00413%

Sequence: YLKWGDPYFWSKLRYAM
Population (MyD88^TIR; [1]): 0.00466%
Rank (after) (MAL^TIR): 159
Rank (before) (MAL^TIR): 519

Sequence: WFYERLVSLILRDSKV
Population (MAL^TIR; [16]): 0.00309%

Sequence: NAFTGHLHRYLVQRGV
Population (MAL^TIR; [2]): 0.00488%

Sequence: RLLKCTEALHQFHNWV
P3_MAL Rank (after) (MAL^TIR; [10]): 566
P3_MAL Rank (before) (MAL^TIR; [11]): 2482

Reference: PMC11714206, “Massively Parallel Screening of Toll/Interleukin‐1 Receptor (TIR)‐Derived Peptides Reveals Multiple Toll‐Like Receptors (TLRs)‐Targeting Immunomodulatory Peptides” (Advanced Science, 2024)
